Measurements as given in patent US7030114B1, “Compounds which inhibit leukocyte adhesion mediated by VLA-4” (Elan Pharmaceuticals, Inc., priority 1997, dated 2006).

Test system: Experimental Autoimmune (or Allergic) Encephalomyelitis (“EAE”)
Assay: In vivo evaluation: Experimental Autoimmune (or Allergic) Encephalomyelitis (EAE) model, motor impairment
Set-up: species or system rats or guinea pigs
Details: treatment from Day 8, bid for five days, SC, PO or IP

## Cc1ccc(S(=O)(=O)N2CCC[C@@]2(C)C(=O)N[C@@H](Cc2ccc(OC(=O)N3CCN(C)CC3)cc2)C(=O)OC(C)(C)C)cc1 [Example 47, N-(toluene-4-sulfonyl)-α-methylprolyl-L-4-(4-methylpiperazin-1-carbonyloxy)phenylalanine tert-butyl ester]
  activity in EAE model (delayed the onset of symptoms, e.g., clinical scores no greater than 2 or slowed body weight loss as compared to the control): active
